Data: ChEMBL document CHEMBL4130500, “New pyridine derivatives as inhibitors of acetylcholinesterase and amyloid aggregation” (Eur J Med Chem, 2017)
Active and inactive are the calls of the source. No cut-off for these calls is given here.

Experiments:
Acetylcholinesterase [1] = molecular target: T1, Acetylcholinesterase (Homo sapiens, UniProt P22303); experiment: Inhibition of human serum AChE at 25 uM using acetylthiocholine iodide as substrate preincubated for 20 mins followed by substrate addition measured for 3 mins by Ellman's method
T1 sequence (P22303 whole entry): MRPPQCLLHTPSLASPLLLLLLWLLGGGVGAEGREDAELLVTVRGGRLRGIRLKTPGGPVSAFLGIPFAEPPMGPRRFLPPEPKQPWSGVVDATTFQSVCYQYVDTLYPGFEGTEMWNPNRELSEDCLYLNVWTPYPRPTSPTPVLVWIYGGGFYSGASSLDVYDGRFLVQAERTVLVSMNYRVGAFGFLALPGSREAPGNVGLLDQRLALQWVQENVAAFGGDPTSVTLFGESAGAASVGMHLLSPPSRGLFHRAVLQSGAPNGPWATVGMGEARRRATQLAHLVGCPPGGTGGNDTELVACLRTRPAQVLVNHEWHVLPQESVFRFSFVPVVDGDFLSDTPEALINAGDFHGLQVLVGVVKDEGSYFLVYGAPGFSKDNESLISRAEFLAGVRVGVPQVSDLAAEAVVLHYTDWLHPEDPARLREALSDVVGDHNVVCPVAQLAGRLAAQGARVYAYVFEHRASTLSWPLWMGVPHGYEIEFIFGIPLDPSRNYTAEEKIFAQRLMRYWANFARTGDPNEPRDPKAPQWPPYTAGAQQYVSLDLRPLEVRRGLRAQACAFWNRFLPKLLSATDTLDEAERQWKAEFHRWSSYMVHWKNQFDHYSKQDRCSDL

Cholinesterase [2] = molecular target: T2, Cholinesterase (Homo sapiens, UniProt P06276); experiment: Inhibition of human serum BChE at 25 uM using butyrylthiocholine iodide as substrate preincubated for 20 mins followed by substrate addition measured for 3 mins by Ellman's method
T2 sequence (P06276 whole entry): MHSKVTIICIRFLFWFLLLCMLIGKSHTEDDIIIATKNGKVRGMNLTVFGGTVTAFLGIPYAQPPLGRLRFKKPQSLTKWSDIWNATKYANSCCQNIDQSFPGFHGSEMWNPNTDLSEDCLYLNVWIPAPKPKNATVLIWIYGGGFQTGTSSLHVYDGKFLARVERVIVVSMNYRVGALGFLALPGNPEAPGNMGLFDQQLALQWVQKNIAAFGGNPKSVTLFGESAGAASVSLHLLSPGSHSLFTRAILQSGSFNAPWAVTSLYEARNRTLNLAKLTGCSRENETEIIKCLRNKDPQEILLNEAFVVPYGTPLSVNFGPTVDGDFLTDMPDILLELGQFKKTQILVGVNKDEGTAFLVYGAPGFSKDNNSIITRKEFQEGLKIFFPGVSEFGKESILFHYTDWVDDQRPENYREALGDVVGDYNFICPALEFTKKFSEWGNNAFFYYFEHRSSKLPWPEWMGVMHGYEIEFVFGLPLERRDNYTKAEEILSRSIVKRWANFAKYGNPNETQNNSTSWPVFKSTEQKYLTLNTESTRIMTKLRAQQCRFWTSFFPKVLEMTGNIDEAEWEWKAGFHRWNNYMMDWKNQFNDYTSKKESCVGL

[3] = molecular target: Cholinesterase (Equus caballus) (UniProt P81908); experiment: Inhibition of equine BChE at 3.0 uM using butyrylthiocholine iodide as substrate measured from 0.5 to 1.5 mins by spectrophotometry based Ellman's method relative to control
Chain of Cholinesterase (Equus caballus) (P81908 whole entry): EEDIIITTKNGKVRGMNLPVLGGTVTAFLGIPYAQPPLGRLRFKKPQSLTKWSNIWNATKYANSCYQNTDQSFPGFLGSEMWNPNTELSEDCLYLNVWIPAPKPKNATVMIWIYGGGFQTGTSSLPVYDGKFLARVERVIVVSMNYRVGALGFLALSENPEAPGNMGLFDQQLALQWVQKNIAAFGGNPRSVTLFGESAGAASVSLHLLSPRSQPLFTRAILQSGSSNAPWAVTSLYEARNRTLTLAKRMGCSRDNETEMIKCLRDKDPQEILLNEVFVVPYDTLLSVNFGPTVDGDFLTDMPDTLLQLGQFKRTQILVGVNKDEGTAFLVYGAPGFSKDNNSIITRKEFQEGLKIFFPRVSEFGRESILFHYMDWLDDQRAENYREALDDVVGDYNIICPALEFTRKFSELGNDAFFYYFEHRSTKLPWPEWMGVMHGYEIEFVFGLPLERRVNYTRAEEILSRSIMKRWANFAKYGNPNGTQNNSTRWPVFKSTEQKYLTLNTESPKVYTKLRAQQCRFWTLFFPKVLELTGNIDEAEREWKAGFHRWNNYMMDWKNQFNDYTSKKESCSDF

[4] = molecular target: Acetylcholinesterase (Electrophorus electricus) (UniProt O42275); experiment: Inhibition of electric eel AChE at 3.0 uM using acetylthiocholine iodide as substrate measured from 0.5 to 1.5 mins by spectrophotometry-based Ellman's method relative to control
Chain of Acetylcholinesterase (Electrophorus electricus) (O42275 24-633 limits assumed): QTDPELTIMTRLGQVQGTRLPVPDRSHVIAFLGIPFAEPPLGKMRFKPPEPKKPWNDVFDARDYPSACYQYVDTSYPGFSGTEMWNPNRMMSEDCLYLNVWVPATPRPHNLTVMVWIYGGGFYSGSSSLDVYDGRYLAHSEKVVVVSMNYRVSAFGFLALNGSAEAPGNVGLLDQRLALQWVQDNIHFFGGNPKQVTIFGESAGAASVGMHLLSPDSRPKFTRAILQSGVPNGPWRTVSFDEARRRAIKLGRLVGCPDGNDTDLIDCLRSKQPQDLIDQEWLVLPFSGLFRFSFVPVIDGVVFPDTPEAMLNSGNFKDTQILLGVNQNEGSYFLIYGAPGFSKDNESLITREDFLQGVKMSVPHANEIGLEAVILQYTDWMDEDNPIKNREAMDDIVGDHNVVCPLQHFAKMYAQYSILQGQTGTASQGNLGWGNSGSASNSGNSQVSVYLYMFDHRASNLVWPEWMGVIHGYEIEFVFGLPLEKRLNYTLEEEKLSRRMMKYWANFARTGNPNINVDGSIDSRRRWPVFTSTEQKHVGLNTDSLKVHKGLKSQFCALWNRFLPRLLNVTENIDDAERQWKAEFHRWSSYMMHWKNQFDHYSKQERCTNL

[5] = molecular target: Acetylcholinesterase (Electrophorus electricus) (UniProt O42275); experiment: Inhibition of electric eel AChE at 0.3 uM using acetylthiocholine iodide as substrate measured from 0.5 to 1.5 mins by spectrophotometry-based Ellman's method relative to control
[6] = molecular target: Cholinesterase (Equus caballus) (UniProt P81908); experiment: Inhibition of equine BChE at 30 uM using butyrylthiocholine iodide as substrate measured from 0.5 to 1.5 mins by spectrophotometry based Ellman's method relative to control
HeLa [7] = experiment: Cytotoxicity against human HeLa cells after 24 hrs by MTT assay; type: cell-based
[8] = molecular target: Acetylcholinesterase (Electrophorus electricus) (UniProt O42275); experiment: Inhibition of electric eel AChE at 0.03 uM using acetylthiocholine iodide as substrate measured from 0.5 to 1.5 mins by spectrophotometry-based Ellman's method relative to control
[9] = Cytotoxicity against human T67 cells assessed as cell mortality at 10 uM after 24 hrs by MTT assay; type: cell-based
Acetylcholinesterase [10] = molecular target: Acetylcholinesterase (Electrophorus electricus, UniProt O42275); experiment: Mixed inhibition of electric eel AChE using acetylthiocholine iodide as substrate measured from 0.5 to 1.5 mins by Dixon plot analysis
Chain of Acetylcholinesterase (Electrophorus electricus, UniProt O42275) (O42275 whole entry): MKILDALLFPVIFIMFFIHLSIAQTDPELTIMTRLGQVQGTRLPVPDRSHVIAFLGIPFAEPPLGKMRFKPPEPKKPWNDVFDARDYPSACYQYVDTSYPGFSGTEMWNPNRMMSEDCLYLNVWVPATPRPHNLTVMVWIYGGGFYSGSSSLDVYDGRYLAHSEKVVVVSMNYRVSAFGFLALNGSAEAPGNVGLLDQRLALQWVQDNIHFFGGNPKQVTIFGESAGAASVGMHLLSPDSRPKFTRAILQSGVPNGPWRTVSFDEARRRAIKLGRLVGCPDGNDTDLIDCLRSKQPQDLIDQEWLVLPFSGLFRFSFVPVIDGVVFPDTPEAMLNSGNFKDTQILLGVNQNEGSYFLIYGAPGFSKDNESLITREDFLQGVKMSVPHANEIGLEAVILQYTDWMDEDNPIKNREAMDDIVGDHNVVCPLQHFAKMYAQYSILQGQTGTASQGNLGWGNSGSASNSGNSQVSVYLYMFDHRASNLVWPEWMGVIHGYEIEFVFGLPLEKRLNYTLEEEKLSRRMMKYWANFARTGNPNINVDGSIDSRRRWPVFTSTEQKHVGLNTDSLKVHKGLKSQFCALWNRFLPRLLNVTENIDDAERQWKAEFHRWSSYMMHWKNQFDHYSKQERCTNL

[11] = molecular target: Cholinesterase (Equus caballus) (UniProt P81908); experiment: Inhibition of equine BChE at 0.3 uM using butyrylthiocholine iodide as substrate measured from 0.5 to 1.5 mins by spectrophotometry based Ellman's method relative to control
[12] = molecular target: Acetylcholinesterase (Electrophorus electricus) (UniProt O42275); experiment: Time-dependent inhibition of electric eel AChE at 300 nM using acetylthiocholine iodide as substrate
[13] = Cytotoxicity against human T67 cells after 24 hrs by MTT assay; type: cell-based; conditions: T67, 24 h
Acetylcholinesterase [14] = molecular target: T1, Acetylcholinesterase; experiment: Inhibition of human serum AChE using acetylthiocholine iodide as substrate preincubated for 20 mins followed by substrate addition measured for 3 mins by Ellman's method
HeLa [15] = experiment: Cytotoxicity against human HeLa cells assessed as cell mortality at 10 uM after 24 hrs by MTT assay; type: cell-based
Cholinesterase [16] = molecular target: T2, Cholinesterase; experiment: Inhibition of human serum BChE using butyrylthiocholine iodide as substrate preincubated for 20 mins followed by substrate addition measured for 3 mins by Ellman's method
[17] = Cytotoxicity against human T67 cells assessed as effect on cell viability up to 10 uM after 24 hrs by MTT assay; type: cell-based
HeLa [18] = experiment: Cytotoxicity against human HeLa cells assessed as effect on cell viability up to 10 uM after 24 hrs by MTT assay; type: cell-based

Structure (SMILES)	inhibition (Acetylcholinesterase [1])	inhibition (Cholinesterase [2])	inhibition [3]	inhibition [4]	inhibition [5]	inhibition [6]	IC50 (HeLa [7])	inhibition [8]	Activity [9]	Ki (Acetylcholinesterase [10])	inhibition [11]	TDI [12]	IC50 [13]	IC50 (Acetylcholinesterase [14])	Activity (HeLa [15])	IC50 (Cholinesterase [16])	Activity [17]	Activity (HeLa [18])
O=C(NCCCCCCNCc1ccc(Oc2ccccc2)cc1)c1cc(Cl)nc(Cl)c1	< 20%	< 20%	18%	16%	inactive	–	–	–	–	–	–	–	–	–	–	–	–	–
O=C(Nc1cc(Cl)nc(Cl)c1)OCCCCCCNCc1ccccc1	–	–	–	91%	72%	89%	12.5 µM	33%	25%	0.259 µM	12%	inactive	13.2 µM	0.759 µM	25%	4.01 µM	–	–
COc1ccccc1CNCCCCCCNC(=O)c1cc(Cl)nc(Cl)c1	–	–	54%	90%	49%	–	–	14%	–	0.355 µM	6%	–	–	8.3 µM	–	45.5 µM	–	–
O=C(NCCCCCCNCc1c[nH]c2ccccc12)c1cc(Cl)nc(Cl)c1	–	–	64%	92%	55%	–	–	15%	–	0.205 µM	13%	–	–	8.85 µM	–	4.7 µM	–	–
O=C(Nc1cc(Cl)nc(Cl)c1)OCCCCCNCc1ccccc1	–	–	–	99%	91%	95%	20.8 µM	65%	–	0.0386 µM	17%	inactive	24.1 µM	0.153 µM	–	4.59 µM	Non-Toxic	Non-Toxic
O=C(Nc1ccncc1Br)OCCCCCNCc1ccccc1	–	–	57%	90%	55%	–	–	20%	–	0.404 µM	< 5%	inactive	–	4.04 µM	–	5.27 µM	–	–
O=C(Nc1cc(Cl)nc(Cl)c1)OCCCCCNCc1ccc(Oc2ccccc2)cc1	< 20%	–	60%	24%	< 5%	–	–	–	–	–	–	inactive	–	–	–	8.41 µM	–	–
O=C(NCCCCCCNCc1ccccc1)c1cc(Cl)nc(Cl)c1	–	–	73%	95%	71%	–	–	18%	–	0.0528 µM	17%	–	–	3.17 µM	–	25.8 µM	–	–
COc1ccccc1CNCCCCCOC(=O)Nc1cc(Cl)nc(Cl)c1	–	–	49%	89%	50%	–	–	10%	–	0.288 µM	< 5%	inactive	–	6.16 µM	–	4.02 µM	–	–
O=C(NCCCCCCNCc1ccc2ccccc2c1)c1cc(Cl)nc(Cl)c1	–	–	46%	15%	inactive	–	–	–	–	–	–	–	–	99.7 µM	–	9.96 µM	–	–
O=C(Nc1cc(Cl)nc(Cl)c1)OCCCCCNCc1c[nH]c2ccccc12	–	–	57%	97%	76%	–	6.7 µM	24%	50%	0.157 µM	8%	inactive	5.8 µM	0.648 µM	50%	0.828 µM	–	–
